# Where two headings read alike, the source gives them in different places.
# Legend:
# human amylin [1] = biological target: T1, human amylin (Homo sapiens, UniProt P10997); assay: Circular dichroism assay of amylin conformation; type: biochemical; set-up: Amylin is a 37-residue; C-terminally amidated peptide having a disulfide bridge between the cysteines at residues 2 and 7; purchased Bachem Calif; (Torrance, Calif.); host or cells: chemical synthesis; conditions: for conformation of human amylin (circular dichroism): approximately 4 μM human amylin, 4% HFIP (FIG. 9E)
# T1 sequence (P10997 34-70 limits assumed): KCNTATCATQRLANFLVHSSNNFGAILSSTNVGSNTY
# Description: Preparation of monomeric human amylin. Human amylin (batch 0551805) was obtained from Bachem (Torrence, Calif.). Stock solutions of amylin were prepared as described by Padrick and Miranker, 2002. Human amylin was solubilised in 6M guanidine HCL/50 mM potassium phosphate, pH 6.0, and loaded onto a C18 reversed-phase spin column (Harvard Biosciences). The column was then washed sequentially with 10% Acetonitrile, 0.2% trifluoroacetic acid and water. Monomeric amylin was eluted in 100% HFIP (hexafluoroisopropanol). This stock solution of amylin was then used for all Circular Dichroism experiments.
# Circular Dichroism Assay. Circular dichroism spectra were measured on a Pi-Star 180 spectrometer (Applied Photophysics, Leatherhead, UK). Measurements were carried out in either 100% HFIP or 100 mM potassium chloride/50 mM potassium phosphate buffer (pH 7.4) and 2.5% HFIP at 25° C. A stock solution of monomeric human amylin was diluted into buffer to a final concentration of 2.5% HFIP and approximately 5 μM amylin to initiate amylin fibril formation. Spectra were collected at 1 nm intervals with a sample period of 25 μs and adaptive sampling of ±0.01 mdeg. Measurements were recorded immediately following addition of the human amylin stock solution to phosphate buffer in the presence or absence of Congo red or amaranth.
# Human amylin (100 μg) was purified on a C18 spin column to give a stock solution in 100% HFIP as described in the methods. A spectrum of this stock solution was collected at 1 nm intervals in a 0.1 cm path length quartz cell (FIG. 9B). The stock solution of monomeric amylin in 100% HFIP was diluted to 2.5% HFIP in 100 mM potassium chloride/50 mM potassium phosphate buffer (pH 7.4). Human amylin concentration was approximately 5 μM. A spectrum was collected at 1 nm intervals in a 0.5 cm path length quartz cell in the absence (FIG. 9C) or presence of 20-fold molar excess of Congo red over human amylin (FIG. 9D). The stock solution of monomeric amylin in 100% HFIP was diluted to 4% HFIP in 100 mM potassium chloride/50 mM potassium phosphate buffer (pH 7.4) containing decreasing concentrations of Congo red as indicated in the Figure. Human amylin concentration was approximately 4 μM. Spectra were collected at 1 nm intervals in a 0.1 cm path length quartz cell (FIG. 9E). The stock solution of monomeric amylin in 100% HFIP was diluted to 4% HFIP in 100 mM potassium chloride/50 mM potassium phosphate buffer (pH 7.4) containing 200 μM Amaranth. Human amylin concentration was approximately 4 μM. Spectra were collected at 1 nm intervals in a 0.1 cm path length quartz cell (FIG. 9F).
# human amylin [2] = biological target: T1, human amylin; assay: Electron microscopy of human amylin fibrils; type: biochemical; set-up: Amylin is a 37-residue; C-terminally amidated peptide having a disulfide bridge between the cysteines at residues 2 and 7; purchased Bachem Calif; (Torrance, Calif.); host or cells: chemical synthesis; conditions: 1200 μM compound, 60 μM human amylin, 10 mM tris pH 7.4, 24 h (FIG. 6)
# Description: Electron Microscopy. […] Samples were removed at various time points and prepared for electron microscopy. Aliquots (8 μl) of the amylin fibril preparations were absorbed to glow-discharged carbon-coated collodion film on 200-mesh copper grids for 1 min. Grids were blotted, washed twice in droplets of deionised water and stained with 2% (w/v) uranyl acetate. Grids were examined in a Phillips Technai transmission electron microscope operated at 120 kV.
# Samples were removed at various time points and prepared for electron microscopy according to the procedure described in the methods.
# Electron Microscopy of human amylin fibrils in the presence and absence of quinacrine (FIG. 5). A 100 fold molar excess of quinacrine was incubated with human amylin. Samples were removed at various time points and prepared for electron microscopy according to the procedure described in the methods.
# Electron Microscopy of human amylin fibrils in the presence and absence of selected polycyclic compounds (FIG. 6). […] Samples were removed and prepared for electron microscopy as described in the Methods. All experiments were performed in triplicate and the pictures above are representative of at least 6 photographs taken at each magnification.
# human amylin [3] = biological target: T1, human amylin; conditions: 10 μM thioflavin-T
# Description: Thioflavin-T binding fluorescent assays. The effects of various polycyclic compounds on islet amyloid formation were measured by fluorescence spectroscopy, using a SpectraMAX Gemini XS Fluorescence Spectrophotometer (Molecular Devices Corporation, Sunnyvale, Calif.). Excitation and emission maxima were set to 450 nm and 510 nm respectively using a cutoff filter at 495 nm. Thioflavin-T binds to amylin fibrils, but not to monomeric amylin (Goldsbury et al., (1999), J. Mol. Biol., 285:33-39). […] The rate of amylin fibril formation was determined by following thioflavin-T fluorescence in the presence or absence of the potential inhibitory drug. […] Background fluorescence by acridine and acridine orange in the absence of amylin was subtracted from the experimental results. The control preparation contained human amylin and thioflavin-T in the absence of drug. The rate of fluorescence enhancement under these conditions was used to compare amylin fibril formation in the absence and presence of the drug. All other experimental conditions were identical.
# Tri-prolyl amylin and rat amylin with thioflavin-T were also used as additional controls.
# Each data point represents the mean±s.e.m of three separate reactions.
# Effect of chlorpromazine on enhancement of thioflavin-Tfluorescence by human amylin (FIG. 2). Chlorpromazine (700 μM) (π) was incubated in 10 mM tris p H 7.4, with monomeric human amylin (70 μM) in the presence of thioflavin-T (10 μM). The fluorescence of the reaction was monitored over 24 hours as described in the methods. […] Each data point represents the mean±s.e.m of three separate reactions.
# Effect of selected polycylic compounds on enhancement of thioflavin-Tfluorescence by human amylin (FIG. 3). Acridine, acridine orange, neutral red and methylene blue are selected examples of fused tricyclic ring compounds. […] Compound structures are shown adjacent to the appropriate graph. […] Fluorescence was monitored over 24 h as described in the Methods. A preparation containing human amylin and thioflavin-T only (▪), was included as a comparison in the absence of drug. […] Each data point represents the mean±s.e.m of three independent experiments.
substance,measurement,setting,value
Congo red,conformation of human amylin (circular dichroism),human amylin [1]; 0.8 μM Congo red after 1 hr,β-sheet
same,conformation of human amylin (circular dichroism),human amylin [1]; 0.8 μM Congo red,random coil
same,conformation of human amylin (circular dichroism),human amylin [1]; 4 μM Congo red,α-helix
same,conformation of human amylin (circular dichroism),human amylin [1]; 200 μM Congo red,α-helix
same,effect on β-sheet conformer formation of human amylin (circular dichroism),"human amylin [1]; 20-fold molar excess of Congo red, approximately 5 μM human amylin, 2.5% HFIP, pH 7.4 (FIG. 9D)",prevents formation of β-sheet conformers
same,time amylin remains stable in α-helical structure,human amylin [1]; excess of Congo red,at least 24 hr
same,morphology of human amylin fibrils (electron microscopy),human amylin [2],still formed characteristic amylin fibrils
same,enhancement of thioflavin-T fluorescence by human amylin,"human amylin [3]; 700 μM compound, 70 μM human amylin, 10 mM tris pH 7.4, over 72 hours (FIG. 1)",no increase in fluorescence beyond that of the rat control preparation
same,enhancement of thioflavin-T fluorescence by human amylin,"human amylin [3]; 1200 μM compound (20-fold molar excess), 60 μM human amylin, over 24 h (FIG. 3)",no increase in thioflavin-T enhanced fluorescence
